This is an account of results in patent US20120196824A1, “THERAPEUTIC AGENT FOR CEREBRAL INFARCTION” (MITSUBISHI TANABE PHARMA CORPORATION, priority 2009, published 2012).

Counter-ions that a name gives are not always drawn.

Experiment [1] concerns Mouse Ischemic Stroke Model. In words: Infarct volume suppressive and motor function improving effects in mouse ischemic stroke model (Rose Bengal photothrombosis, TTC staining, Rota-rod). It counts as in vivo. The settings on record: dose of 10 mg/kg. The procedure:
Mouse was fixed under isoflurane anesthesia and the scalp was incised. Rose Bengal (7.5 mg/kg) was administered i.v., and green light (550 nm, Hamamatsu Photonics, K.K.) was immediately irradiated at 2 mm side and 1 mm above the bregma for 5 min. Thereafter, the scalp was bonded with an instant glue. To the test drug and control groups was given the first administration after the mice awoke, and they were subjected to the administration again the next day. Two days later, motor function was evaluated by Rota-rod (up to 60 sec, walking time on Rota-Rod was measured). Then the brain was removed, sliced in 1 mm, the site of infaction was decided by 1% TTC staining and the volume was measured by image analysis. The infarct volume suppression rate (%) and walking time (%) on Rota-Rod with Vehicle 100% at the dose of 10 mg/kg are shown in the following Table. In addition, walking time (sec) on Rota-Rod and infarct volume suppression rate (mm^3) when 3-deazaadenosine was used as a test drug are shown in FIG. 1 and FIG. 2.

The target in experiment [2] is T1, Human-recombinant-S-Adenosyl-L-Homocysteine Hydrolase (Homo sapiens, UniProt P23526).
T1 construct: purchased Diazyme Laboratories
T1 sequence (P23526 whole entry): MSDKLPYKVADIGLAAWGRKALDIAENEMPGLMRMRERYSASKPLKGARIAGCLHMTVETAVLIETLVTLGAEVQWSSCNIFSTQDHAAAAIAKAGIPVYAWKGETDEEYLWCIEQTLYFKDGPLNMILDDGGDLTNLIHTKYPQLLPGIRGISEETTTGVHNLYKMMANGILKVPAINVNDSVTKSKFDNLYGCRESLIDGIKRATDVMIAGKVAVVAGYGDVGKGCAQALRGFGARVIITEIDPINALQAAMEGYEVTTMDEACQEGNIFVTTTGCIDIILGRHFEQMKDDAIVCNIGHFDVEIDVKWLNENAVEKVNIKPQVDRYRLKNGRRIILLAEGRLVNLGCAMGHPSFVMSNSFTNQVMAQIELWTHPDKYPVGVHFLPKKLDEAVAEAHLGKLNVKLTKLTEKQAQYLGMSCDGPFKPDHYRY
The experiment is described as follows: Measurement of enzyme inhibitory activity (hydrolysis of S-Adenosyl-L-Homocysteine, HPLC). The class given is biochemical. The settings on record: S-Adenosyl-L-Homocysteine 10 μM, pH 7.2, 37° C., 15 min. How it is done:
The enzyme inhibitory activity of the compounds of the Examples was measured using the hydrolysis activity of S-Adenosyl-L-Homocysteine as an index. The measurement method was modification of the method of Henry H. Richards et al. (J. Biol. Chem. 253, 4476-4480, 1978). That is, S-Adenosyl-L-Homocysteine (10 μM) and Adenosine Deaminase (Roche) (4 units) were added to 50 mM phosphate buffer (pH 7.2, containing 1 mM EDTA) with the total amount being 200 μl, and to the solution were added a test substance and then Human-recombinant-S-Adenosyl-L-Homocysteine Hydrolase (50 ng, Diazyme Laboratories) to start the reaction, and the mixture was incubated at 37° C. for 15 min. The reaction was quenched by the addition of 1N aqueous perchloric solution (20 μl), and the mixture was centrifuged under the conditions of 10000 rpm, 5 min, 4° C. The supernatant was collected, and the amount of S-Adenosyl-L-Homocysteine after the reaction was quantified by HPLC. The column used was a reversed-phase column. The detailed conditions of HPLC were as follows.
column used: Wakopak^R HandyODS 150*4.6 mm (Wako Pure Chemical Industries, Ltd.) elution condition: 1.0 ml/min elution solvent: 0.1M acetate buffer (pH 4.0) containing 10 mM 1-heptanesulfonic acid containing 4% acetonitrile wavelength: 258 nm (UV) The inhibitory rate was determined with the amount of decrease in S-Adenosyl-L-Homocysteine before and after the reaction without using the test substance as 100%.
Inhibitory rate (%)={(amount of decrease of S-Adenosyl-L-Homocysteine in the presence of test substance)/(amount of decrease of S-Adenosyl-L-Homocysteine in the absence of test substance)}×100

The test system of another experiment is homocysteine synthesis. The experiment is described as follows: Measurement of homocysteine synthesis inhibitory activity in vivo (methionine-loaded mouse, plasma homocysteine). The settings on record: dose of 10 mg/kg, oral, BALB/c mouse; methionine water 1 hr later; plasma 30 min after; read-out: activity (homocysteine synthesis inhibitory rate). How it is done:
A sample was orally administered to BALB/c mouse and, 1 hr later, methionine water (50 g/L) was orally administered at a proportion of 10 ml/kg. 30 min later, blood samples were collected with heparin from the abdominal vein and plasma was obtained. The plasma homocysteine concentration was measured by treating the plasma with tributylphosphine, removing protein with 10% trichloroacetic acid (TCA), fluorescent labeling the supernatant with 4-fluoro-7-sulfobenzofurazan ammonium salt (SBD-F) under alkali conditions, and quantifying by HPLC. The homocysteine synthesis inhibitory rate of the sample was determined with the difference in the homocysteine value between methionine water-loaded animal and methionine water-unloaded animal as 100%. The detailed conditions of HPLC were as follows.
column used: Wakopak^R HandyODS 150*4.6 mm (Wako Pure Chemical Industries, Ltd.) elution condition: 1.0 ml/min elution solvent: 0.1M phosphate buffer (pH 6.0) 2% methanol wavelength: ex 385 nm em 515 nm

For the compound `Nc1nccc2c1ncn2[C@@H]1O[C@H](CO)[C@@H](O)[C@H]1O` [3-deazaadenosine, reference compound], the “infarct volume suppression rate (%)” value in experiment [1] (two administrations, measured two days later, TTC staining) amounted to 14%. Besides, the “walking time (%)” value in experiment [1] (walking time on Rota-Rod with Vehicle 100%, two days later) was determined as 170%.

Broadly, the IC50 is the concentration at which inhibition is half-maximal. Regarding `Cc1ccc(C#N)cc1N(CC(=O)NCCNC(C)C)CC(=O)N(C)N1Cc2ccccc2C1` [Example 1, N^2-(5-cyano-2-methylphenyl)-N^2-{2-[1,3-dihydro-2H-isoindol-2-yl(methyl)amino]-2-oxoethyl}-N^1-[2-(isopropylamino)ethyl]glycinamide dihydrochloride], the IC50 in experiment [2] was found to be 68 nM. In the experiment on homocysteine synthesis, the inhibition in vivo at 10 mg/kg was at least 40%.

Take `CCNCCNC(=O)CN(CC(=O)N(C)N1Cc2ccccc2C1)c1cc(C#N)ccc1C` [Example 2, N^2-(5-cyano-2-methylphenyl)-N^2-{2-[1,3-dihydro-2H-isoindol-2-yl(methyl)amino]-2-oxoethyl}-N^1-[2-(ethylamino)ethyl]glycinamide dihydrochloride]: the IC50 in experiment [2] was determined as 92 nM. Also, in the experiment on homocysteine synthesis, the inhibition in vivo at 10 mg/kg is at least 40%.

`Cc1nc(-c2ccc(C)c(N(CC(=O)NCCNC(C)C)CC(=O)N(C)N3Cc4ccc(F)cc4C3)c2)no1` [Example 21, N^2-{2-[(5-fluoro-1,3-dihydro-2H-isoindol-2-yl)(methyl)amino]-2-oxoethyl}-N^2-[2-methyl-5-(5-methyl-1,2,4-oxadiazol-3-yl)phenyl]-N^1-[2-(isopropylamino)ethyl]glycinamide]: the IC50 in experiment [2] was determined as 89 nM. The inhibition in vivo at 10 mg/kg in the experiment with homocysteine synthesis is at least 40%.

Regarding `CCNCCNC(=O)CN(CC(=O)N(C)N1Cc2ccc(OC)cc2C1)c1cc(-c2noc(C)n2)ccc1C` [Example 24, N^2-{2-[(5-methoxy-1,3-dihydro-2H-isoindol-2-yl)(methyl)amino]-2-oxoethyl}-N^2-[2-methyl-5-(5-methyl-1,2,4-oxadiazol-3-yl)phenyl]-N^1-[2-(ethylamino)ethyl]glycinamide], in experiment [2], the IC50 came out at 46 nM. Besides, the inhibition in vivo at 10 mg/kg in the experiment on homocysteine synthesis fell in the range of 20 to 40%.

For the compound `Cc1nc(-c2ccc(N(CC(=O)NCCNC(C)C)CC(=O)N(C)N3Cc4ccccc4C3)c(C)c2)no1` [Example 64, N^2-{2-[1,3-dihydro-2H-isoindol-2-yl(methyl)amino]-2-oxoethyl}-N^2-[2-methyl-4-(5-methyl-1,2,4-oxadiazol-3-yl)phenyl]-N^1-[2-(isopropylamino)ethyl]glycinamide], the IC50 in experiment [2] was found to be 103 nM. Moreover, the inhibition in vivo at 10 mg/kg in the experiment with homocysteine synthesis is at least 40%.

Regarding `Cc1ccc(-c2nn(C)c(=O)o2)cc1N(CC(=O)NCCNC(C)C)CC(=O)N(C)N1Cc2ccccc2C1` [Example 88, N^2-{2-[1,3-dihydro-2H-isoindol-2-yl(methyl)amino]-2-oxoethyl}-N^2-[2-methyl-5-(4-methyl-5-oxo-4,5-dihydro-1,3,4-oxadiazol-2-yl)phenyl]-N^1-[2-(isopropylamino)ethyl]glycinamide], the 50% inhibitory concentration (IC50) in experiment [2] stood at 43 nM. In addition, in the experiment on homocysteine synthesis, the inhibition in vivo at 10 mg/kg fell in the range of 20 to 40%.

Take `CCNCCNC(=O)CN(CC(=O)N(C)N1Cc2ccccc2C1)c1cc(-c2nn(C)c(=O)o2)ccc1C` [Example 89, N^2-{2-[1,3-dihydro-2H-isoindol-2-yl(methyl)amino]-2-oxoethyl}-N^2-[2-methyl-5-(4-methyl-5-oxo-4,5-dihydro-1,3,4-oxadiazol-2-yl)phenyl]-N^1-[2-(ethylamino)ethyl]glycinamide]: in experiment [2], the concentration for half-maximal inhibition (IC50) amounted to 53 nM. For the same compound, the inhibition in vivo at 10 mg/kg in the experiment on homocysteine synthesis lay in the range of 20 to 40%.

Turning to `CCNCCNC(=O)CN(CC(=O)N(C)N1Cc2ccccc2C1)c1cc(-c2nn(CC)c(=O)o2)ccc1C` [Example 92, N^2-{2-[1,3-dihydro-2H-isoindol-2-yl(methyl)amino]-2-oxoethyl}-N^2-[5-(4-ethyl-5-oxo-4,5-dihydro-1,3,4-oxadiazol-2-yl)-2-methylphenyl]-N^1-[2-(ethylamino)ethyl]glycinamide], in experiment [2], the IC50 was determined as 48 nM. Also, the inhibition in vivo at 10 mg/kg with homocysteine synthesis was at least 40%.

Take `CCN1C(=O)CCc2cc(N(CC(=O)NCCNC(C)C)CC(=O)N(C)N3Cc4ccccc4C3)c(C)cc21` [Example 176, N^2-{2-[1,3-dihydro-2H-isoindol-2-yl(methyl)amino]-2-oxoethyl}-N^2-(1-ethyl-7-methyl-2-oxo-1,2,3,4-tetrahydroquinolin-6-yl)-N^1-[2-(isopropylamino)ethyl]glycinamide]: the IC50 in experiment [2] stood at 63 nM. The inhibition in vivo at 10 mg/kg with homocysteine synthesis was at least 40%.

For `Cc1cc2c(C)noc2cc1N(CC(=O)NCCNC(C)C)CC(=O)N(C)N1Cc2ccccc2C1` [Example 184, N^2-{2-[1,3-dihydro-2H-isoindol-2-yl(methyl)amino]-2-oxoethyl}-N^2-(3,5-dimethyl-1,2-benzisoxazol-6-yl)-N^1-[2-(isopropylamino)ethyl]glycinamide], the IC50 in experiment [2] came out at 37 nM. In addition, the inhibition in vivo at 10 mg/kg in the experiment with homocysteine synthesis was at least 40%.

`CCNCCNC(=O)CN(CC(=O)N(C)N1Cc2ccccc2C1)c1cc2onc(C)c2cc1C` [Example 185, N^2-{2-[1,3-dihydro-2H-isoindol-2-yl(methyl)amino]-2-oxoethyl}-N^2-(3,5-dimethyl-1,2-benzisoxazol-6-yl)-N^1-[2-(ethylamino)ethyl]glycinamide]: in experiment [2], the 50% inhibitory concentration (IC50) was found to be 8 nM. In the experiment on homocysteine synthesis, the inhibition in vivo at 10 mg/kg was at least 40%.

For `CCNCCNC(=O)CN(CC(=O)N(C)N1Cc2ccccc2C1)c1ccc(-c2nc(C)no2)cc1C` [Example 229, N^2-{2-[1,3-dihydro-2H-isoindol-2-yl(methyl)amino]-2-oxoethyl}-N^2-[2-methyl-4-(3-methyl-1,2,4-oxadiazol-5-yl)phenyl]-N^1-[2-(ethylamino)ethyl]glycinamide], the IC50 in experiment [2] came out at 35 nM. In addition, the inhibition in vivo at 10 mg/kg with homocysteine synthesis is at least 40%.

Take `CCNCCNC(=O)CN(CC(=O)N(C)N1Cc2ccccc2C1)c1cc2cnn(C)c2cc1C` [Example 241, N^2-{2-[1,3-dihydro-2H-isoindol-2-yl(methyl)amino]-2-oxoethyl}-N^2-(1,6-dimethyl-1H-indazol-5-yl)-N^1-[2-(ethylamino)ethyl]glycinamide hydrochloride]: the IC50 in experiment [2] was 9 nM. Besides, the inhibition in vivo at 10 mg/kg with homocysteine synthesis is at least 40%.

Consider `CCNCCNC(=O)CN(CC(=O)N(C)N1Cc2ccc(F)cc2C1)c1cc2nn(CC(F)F)cc2cc1C` [Example 268, N^2-[2-(2,2-difluoroethyl)-5-methyl-2H-indazol-6-yl]-N^2-{2-[(5-fluoro-1,3-dihydro-2H-isoindol-2-yl)(methyl)amino]-2-oxoethyl}-N^1-[2-(ethylamino)ethyl]glycinamide hydrochloride], for which, in the experiment on homocysteine synthesis, the inhibition in vivo at 10 mg/kg was under 20%.

Regarding `CCNCCNC(=O)CN(CC(=O)N(C)N1Cc2ccc(F)cc2C1)c1cc(-c2noc(CO)n2)ccc1C` [Example 292, N^2-{2-[(5-fluoro-1,3-dihydro-2H-isoindol-2-yl)(methyl)amino]-2-oxoethyl}-N^2-{5-[5-(hydroxymethyl)-1,2,4-oxadiazol-3-yl]-2-methylphenyl}-N^1-[2-(ethylamino)ethyl]glycinamide hydrochloride], the inhibition in vivo at 10 mg/kg in the experiment with homocysteine synthesis was in the range of 20 to 40%.

For the compound `CCNCCNC(=O)CN(CC(=O)N(C)N1Cc2ccccc2C1)c1ccc(-c2nc(C(=O)N(C)C)cs2)cc1C` [Example 304, N^2-{2-[1,3-dihydro-2H-isoindol-2-yl(methyl)amino]-2-oxoethyl}-N^2-[4-{4-[(dimethylamino)carbonyl]-1,3-thiazol-2-yl}-2-methylphenyl]-N^1-[2-(ethylamino)ethyl]glycinamide dihydrochloride], the inhibition in vivo at 10 mg/kg in the experiment on homocysteine synthesis was at least 40%.
